Experimental data taken from US12258327B2, “5-membered heteroaryl-containing aminopyridine compounds as EGFR inhibitors” (YUHAN CORPORATION, priority 2021, dated 2025).
Like-named read-outs stand apart in the source and are kept apart here.

Experiments:
EGFR del19/T790M/C797S = EGFR del19/T790M/C797S (Homo sapiens, UniProt P00533, C797S/DEL746-750/T790M); assay: Biochemical EGFR kinase assay (Lance Ultra TR-FRET), triple mutant del19/T790M/C797S
Summary of the method: (§1)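 In this biochemical assay, phosphorylation after a one-hour room-temperature reaction was detected with europium-labelled anti-phosphopeptide antibody at 2 nM final concentration.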

EGFR L858R/T790M/C797S = EGFR L858R/T790M/C797S (Homo sapiens, UniProt P00533, C797S/L858R/T790M); assay: Biochemical EGFR kinase assay (Lance Ultra TR-FRET), triple mutant L858R/T790M/C797S
Chain of EGFR L858R/T790M/C797S (P00533 25-1210 T790M/C797S/L858R): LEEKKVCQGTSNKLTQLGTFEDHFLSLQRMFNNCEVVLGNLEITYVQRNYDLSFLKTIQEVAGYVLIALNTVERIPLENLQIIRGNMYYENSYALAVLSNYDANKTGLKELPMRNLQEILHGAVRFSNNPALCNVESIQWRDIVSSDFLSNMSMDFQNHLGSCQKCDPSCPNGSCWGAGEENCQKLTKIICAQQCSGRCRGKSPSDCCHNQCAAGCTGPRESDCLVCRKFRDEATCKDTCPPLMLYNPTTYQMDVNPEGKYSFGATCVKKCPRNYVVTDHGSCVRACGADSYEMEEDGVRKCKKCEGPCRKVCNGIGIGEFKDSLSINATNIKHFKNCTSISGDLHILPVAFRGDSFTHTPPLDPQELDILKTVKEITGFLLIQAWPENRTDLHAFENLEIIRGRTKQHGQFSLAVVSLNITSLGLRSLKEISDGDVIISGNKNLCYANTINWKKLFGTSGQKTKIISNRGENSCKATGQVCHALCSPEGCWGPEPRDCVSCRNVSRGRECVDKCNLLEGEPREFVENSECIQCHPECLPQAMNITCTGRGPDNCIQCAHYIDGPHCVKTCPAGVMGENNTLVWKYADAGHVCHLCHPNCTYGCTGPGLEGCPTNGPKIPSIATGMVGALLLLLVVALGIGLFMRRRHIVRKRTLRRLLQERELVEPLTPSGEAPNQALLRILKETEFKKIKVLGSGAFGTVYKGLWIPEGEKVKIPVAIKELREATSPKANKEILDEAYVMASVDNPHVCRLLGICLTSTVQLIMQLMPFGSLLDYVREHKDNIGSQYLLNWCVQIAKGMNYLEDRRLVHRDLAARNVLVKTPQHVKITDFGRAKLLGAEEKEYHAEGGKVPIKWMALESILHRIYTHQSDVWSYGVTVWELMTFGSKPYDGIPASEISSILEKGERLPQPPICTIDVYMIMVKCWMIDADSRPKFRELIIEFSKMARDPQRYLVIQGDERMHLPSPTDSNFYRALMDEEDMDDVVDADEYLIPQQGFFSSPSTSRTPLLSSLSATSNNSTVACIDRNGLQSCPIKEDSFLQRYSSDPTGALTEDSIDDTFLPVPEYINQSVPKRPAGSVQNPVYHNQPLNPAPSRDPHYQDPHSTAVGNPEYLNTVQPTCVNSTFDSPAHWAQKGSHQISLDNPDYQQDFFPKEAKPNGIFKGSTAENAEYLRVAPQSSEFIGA
Summary of the method: as §1

EGFR del19/C797S = EGFR del19/C797S (Homo sapiens, UniProt P00533, C797S/DEL746-750); assay: Biochemical EGFR kinase assay (Lance Ultra TR-FRET), double mutant del19/C797S
Summary of the method: as §1

EGFR wildtype (WT) = EGFR wildtype (WT) (Homo sapiens, UniProt P00533); assay: Biochemical EGFR kinase assay (Lance Ultra TR-FRET), wildtype
Chain of EGFR wildtype (WT) (P00533 25-1210): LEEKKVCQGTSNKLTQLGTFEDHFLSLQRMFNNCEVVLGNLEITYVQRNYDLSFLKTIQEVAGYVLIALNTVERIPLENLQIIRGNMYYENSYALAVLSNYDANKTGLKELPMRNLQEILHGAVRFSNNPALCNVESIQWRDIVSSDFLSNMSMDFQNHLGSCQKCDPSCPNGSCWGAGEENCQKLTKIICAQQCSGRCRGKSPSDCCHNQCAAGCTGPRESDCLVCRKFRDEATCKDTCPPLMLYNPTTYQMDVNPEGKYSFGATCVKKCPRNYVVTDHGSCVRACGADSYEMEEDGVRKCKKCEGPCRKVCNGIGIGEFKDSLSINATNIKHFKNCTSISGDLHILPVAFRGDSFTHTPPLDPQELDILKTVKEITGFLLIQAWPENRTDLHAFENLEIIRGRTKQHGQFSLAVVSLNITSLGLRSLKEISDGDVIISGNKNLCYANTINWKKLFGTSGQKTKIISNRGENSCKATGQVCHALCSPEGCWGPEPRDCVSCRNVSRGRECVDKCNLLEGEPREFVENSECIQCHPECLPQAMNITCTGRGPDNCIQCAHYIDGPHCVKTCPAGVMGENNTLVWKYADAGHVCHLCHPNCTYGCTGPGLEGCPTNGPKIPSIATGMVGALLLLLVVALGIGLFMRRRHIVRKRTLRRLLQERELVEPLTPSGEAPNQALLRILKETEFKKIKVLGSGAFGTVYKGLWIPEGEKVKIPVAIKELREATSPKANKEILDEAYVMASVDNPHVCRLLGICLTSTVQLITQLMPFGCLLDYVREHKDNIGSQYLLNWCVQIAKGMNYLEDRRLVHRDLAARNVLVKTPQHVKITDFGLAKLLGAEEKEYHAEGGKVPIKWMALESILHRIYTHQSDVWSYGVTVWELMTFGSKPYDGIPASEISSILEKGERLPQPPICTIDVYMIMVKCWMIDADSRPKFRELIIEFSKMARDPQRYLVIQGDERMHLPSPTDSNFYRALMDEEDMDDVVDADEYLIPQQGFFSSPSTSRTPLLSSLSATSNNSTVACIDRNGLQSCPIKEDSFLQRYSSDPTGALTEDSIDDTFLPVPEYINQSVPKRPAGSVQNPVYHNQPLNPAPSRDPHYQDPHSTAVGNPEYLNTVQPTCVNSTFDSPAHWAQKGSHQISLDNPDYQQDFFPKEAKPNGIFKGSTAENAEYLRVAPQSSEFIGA
Summary of the method: as §1

EGFR L858R/C797S = EGFR L858R/C797S (Homo sapiens, UniProt P00533, C797S/L858R); assay: Biochemical EGFR kinase assay (Lance Ultra TR-FRET), double mutant L858R/C797S
Chain of EGFR L858R/C797S (P00533 25-1210 C797S/L858R): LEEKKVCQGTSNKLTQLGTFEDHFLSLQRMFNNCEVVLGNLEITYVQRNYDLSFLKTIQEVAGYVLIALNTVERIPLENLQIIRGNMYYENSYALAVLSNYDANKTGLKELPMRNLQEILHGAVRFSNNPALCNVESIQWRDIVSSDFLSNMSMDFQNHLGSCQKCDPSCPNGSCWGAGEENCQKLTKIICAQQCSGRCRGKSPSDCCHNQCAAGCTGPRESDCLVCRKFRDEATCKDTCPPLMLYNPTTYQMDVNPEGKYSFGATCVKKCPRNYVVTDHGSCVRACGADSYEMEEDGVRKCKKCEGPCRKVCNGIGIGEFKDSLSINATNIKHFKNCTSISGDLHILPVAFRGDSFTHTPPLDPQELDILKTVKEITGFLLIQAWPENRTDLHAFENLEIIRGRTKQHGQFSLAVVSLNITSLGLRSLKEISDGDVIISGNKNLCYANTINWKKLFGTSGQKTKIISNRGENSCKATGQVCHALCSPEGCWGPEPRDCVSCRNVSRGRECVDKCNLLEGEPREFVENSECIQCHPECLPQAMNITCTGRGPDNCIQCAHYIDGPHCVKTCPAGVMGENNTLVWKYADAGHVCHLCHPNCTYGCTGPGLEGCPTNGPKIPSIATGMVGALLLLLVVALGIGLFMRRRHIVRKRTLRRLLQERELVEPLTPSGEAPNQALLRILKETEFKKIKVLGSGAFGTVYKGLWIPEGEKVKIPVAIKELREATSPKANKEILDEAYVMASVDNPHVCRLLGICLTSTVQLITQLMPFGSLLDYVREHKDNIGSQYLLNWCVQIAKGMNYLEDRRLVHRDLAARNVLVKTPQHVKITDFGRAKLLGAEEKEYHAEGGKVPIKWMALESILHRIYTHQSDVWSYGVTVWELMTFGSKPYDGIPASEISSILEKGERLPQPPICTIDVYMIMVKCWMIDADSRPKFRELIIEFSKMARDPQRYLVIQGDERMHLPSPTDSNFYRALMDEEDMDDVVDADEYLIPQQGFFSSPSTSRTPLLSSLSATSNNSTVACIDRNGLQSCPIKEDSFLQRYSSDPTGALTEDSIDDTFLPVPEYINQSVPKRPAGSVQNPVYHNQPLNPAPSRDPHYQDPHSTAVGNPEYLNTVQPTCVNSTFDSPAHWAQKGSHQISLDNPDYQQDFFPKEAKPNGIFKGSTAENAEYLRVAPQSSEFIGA
Summary of the method: as §1

[1] = IC50 del19/T790M/C797S (nM) 100 μM ATP, 100 μM ATP
[2] = Km ATP, read-out: IC50 del19/T790M/C797S (nM) Km ATP
[3] = IC50 L858R/T790M/C797S (nM) 100 μM ATP, 100 μM ATP
[4] = Km ATP, read-out: IC50 L858R/T790M/C797S (nM) Km ATP
[5] = IC50 del19/C797S (nM) 100 μM ATP, 100 μM ATP
[6] = Km ATP, read-out: IC50 del19/C797S (nM) Km ATP
[7] = IC50 WT (nM) 100 μM ATP, 100 μM ATP
[8] = Km ATP, read-out: IC50 WT (nM) Km ATP
[9] = IC50 L858R/C797S (nM) 100 μM ATP, 100 μM ATP
[10] = Km ATP, read-out: IC50 L858R/C797S (nM) Km ATP

Chain of EGFR del19/T790M/C797S (P00533 with tags, fused parts or gaps DEL746-750/T790M/C797S): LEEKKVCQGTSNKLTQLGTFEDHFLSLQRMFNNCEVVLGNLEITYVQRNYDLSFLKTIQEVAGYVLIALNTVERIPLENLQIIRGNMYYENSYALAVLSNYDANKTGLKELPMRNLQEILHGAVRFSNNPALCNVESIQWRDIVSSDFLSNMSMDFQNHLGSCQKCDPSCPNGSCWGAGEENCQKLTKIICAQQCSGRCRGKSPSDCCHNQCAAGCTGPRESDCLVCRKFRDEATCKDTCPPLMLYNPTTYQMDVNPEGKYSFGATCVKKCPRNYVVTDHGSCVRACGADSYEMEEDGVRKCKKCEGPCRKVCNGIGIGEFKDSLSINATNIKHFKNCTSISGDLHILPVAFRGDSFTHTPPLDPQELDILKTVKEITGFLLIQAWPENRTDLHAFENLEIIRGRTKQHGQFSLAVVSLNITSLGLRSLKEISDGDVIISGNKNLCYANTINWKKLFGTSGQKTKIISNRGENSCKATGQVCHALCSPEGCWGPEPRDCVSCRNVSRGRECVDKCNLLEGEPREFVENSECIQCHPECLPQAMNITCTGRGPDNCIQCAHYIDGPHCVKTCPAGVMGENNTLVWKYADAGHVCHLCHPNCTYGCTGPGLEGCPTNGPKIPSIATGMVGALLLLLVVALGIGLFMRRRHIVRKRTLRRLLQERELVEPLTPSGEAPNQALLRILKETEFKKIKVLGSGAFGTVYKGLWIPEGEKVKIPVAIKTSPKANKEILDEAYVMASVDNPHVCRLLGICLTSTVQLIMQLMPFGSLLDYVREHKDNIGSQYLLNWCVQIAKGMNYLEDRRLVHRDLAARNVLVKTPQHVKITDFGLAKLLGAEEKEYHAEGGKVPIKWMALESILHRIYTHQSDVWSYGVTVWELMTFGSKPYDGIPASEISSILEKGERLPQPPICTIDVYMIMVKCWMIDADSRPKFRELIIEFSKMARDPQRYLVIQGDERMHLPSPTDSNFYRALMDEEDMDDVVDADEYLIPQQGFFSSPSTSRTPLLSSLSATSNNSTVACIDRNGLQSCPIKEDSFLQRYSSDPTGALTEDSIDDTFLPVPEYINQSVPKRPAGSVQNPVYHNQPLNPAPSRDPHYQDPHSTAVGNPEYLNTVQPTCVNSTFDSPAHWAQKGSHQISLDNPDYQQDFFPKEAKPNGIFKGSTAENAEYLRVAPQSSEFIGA

Structure (SMILES) | IC50 (EGFR del19/T790M/C797S; [1]) | IC50 (EGFR del19/T790M/C797S; [2]) | IC50 (EGFR L858R/T790M/C797S; [3]) | IC50 (EGFR L858R/T790M/C797S; [4]) | IC50 (EGFR del19/C797S; [5]) | IC50 (EGFR del19/C797S; [6]) | IC50 (EGFR wildtype (WT); [7]) | IC50 (EGFR wildtype (WT); [8]) | IC50 (EGFR L858R/C797S; [9]) | IC50 (EGFR L858R/C797S; [10])
O=S(=O)(C1CC1)n1cc(-c2nccc(Nc3cc(N[C@H]4CC[C@@H](NCCF)CC4)c(-c4cc5n(n4)CCCC5)cn3)n2)cn1 [Example 62, N^2-(2-(1-(Cyclopropylsulfonyl)-1H-pyrazol-4-yl)pyrimidin-4-yl)-N^4-((1s,4s)-4-((2-fluoroethyl)amino)cyclohexyl)-5-(4,5,6,7-tetrahydropyrazolo[1,5-a]pyridin-2-yl)pyridine-2,4-diamine] | 0.3 nM | 0.2 nM | 0.2 nM | 0.1 nM | 0.5 nM | 0.2 nM | 617 nM | 1.1 nM | 1.9 nM | 0.2 nM
O=S(=O)(C1CC1)n1cc(-c2nccc(Nc3cc(N[C@H]4CCCNCC4)c(-c4ccn(C(F)F)n4)cn3)n2)cn1 [Example 17, (S)-N^4-(Azepan-4-yl)-N^2-(2-(1-(cyclopropylsulfonyl)-1H-pyrazol-4-yl)pyrimidin-4-yl)-5-(1-(difluoromethyl)-1H-pyrazol-3-yl)pyridine-2,4-diamine] | 1 nM | – | 2.6 nM | – | 19.1 nM | – | > 10000 nM | – | 691 nM | –
O=S(=O)(C1CC1)n1cc(-c2nccc(Nc3cc(NC4CCCC(NCC(F)F)C4)c(-c4ccn(C(F)F)n4)cn3)n2)cn1 (stereo not shown) [Example 191, N^2-(2-(1-(Cyclopropylsulfonyl)-1H-pyrazol-4-yl)pyrimidin-4-yl)-N^4-(3-((2,2-difluoroethyl)amino)cyclohexyl)-5-(1-(difluoromethyl)-1H-pyrazol-3-yl)pyridine-2,4-diamine] | 1.7 nM | – | 2.4 nM | – | 35.5 nM | – | > 10000 nM | – | 1400 nM | –
CN(C)CC[C@H]1CC[C@@H](Nc2cc(Nc3ccnc(-c4cnn(S(=O)(=O)C5CC5)c4)n3)ncc2-c2ccn(C(F)F)n2)CC1 [Example 211, N^2-(2-(1-(Cyclopropylsulfonyl)-1H-pyrazol-4-yl)pyrimidin-4-yl)-5-(1-(difluoromethyl)-1H-pyrazol-3-yl)-N^4-((1s,4s)-4-(2-(dimethylamino)ethyl)cyclohexyl)pyridine-2,4-diamine] | – | 0.6 nM | – | 0.3 nM | – | 0.4 nM | – | 0.3 nM | – | 0.1 nM
CC(C)(O)[C@H]1CC[C@@H](Nc2cc(Nc3ccnc(-c4cnn(S(=O)(=O)C5CC5)c4)n3)ncc2-c2cc3n(n2)CCCC3)CC1 [Example 61, 2-((1s,4s)-4-((2-((2-(1-(Cyclopropylsulfonyl)-1H-pyrazol-4-yl)pyrimidin-4-yl)amino)-5-(4,5,6,7-tetrahydropyrazolo[1,5-a]pyridin-2-yl)pyridin-4-yl)amino)cyclohexyl)propan-2-ol] | 4.3 nM | 2 nM | 2.4 nM | 0.8 nM | 6.2 nM | 1.9 nM | 2900 nM | 7.9 nM | 8.8 nM | 2.9 nM
CN(CC(F)F)C[C@H]1CC[C@@H](Nc2cc(Nc3ccnc(-c4cnn(S(=O)(=O)C5CC5)c4)n3)ncc2-c2ccn(C)n2)CC1 [Example 237, N^2-(2-(1-(Cyclopropylsulfonyl)-1H-pyrazol-4-yl)pyrimidin-4-yl)-N^4-((1s,4s)-4-(((2,2-difluoroethyl)(methyl)amino)methyl)cyclohexyl)-5-(1-methyl-1H-pyrazol-3-yl)pyridine-2,4-diamine] | 7.4 nM | 12.1 nM | 5.4 nM | 3 nM | 6.7 nM | 17.5 nM | 2800 nM | 15.5 nM | 61.4 nM | 6.5 nM
C[C@]1(O)CC[C@@H](Nc2cc(Nc3ccnc(-c4cnn(S(=O)(=O)C5CC5)c4)n3)ncc2-c2cn3c(n2)CCC3)CC1 [Example 274, (1s,4s)-4-((2-((2-(1-(Cyclopropylsulfonyl)-1H-pyrazol-4-yl)pyrimidin-4-yl)amino)-5-(6,7-dihydro-5H-pyrrolo[1,2-a]imidazol-2-yl)pyridin-4-yl)amino)-1-methylcyclohexan-1-ol] | 0.5 nM | 0.3 nM | 0.3 nM | 0.2 nM | 0.5 nM | 0.6 nM | 4880 nM | 3.4 nM | 3.8 nM | 0.3 nM
